One assay concerns the target T1, JAK2 (Homo sapiens, UniProt O60674).
T1 construct: purchased Invitrogen
The assay is described as follows: Assay for JAK2 Inhibition (phosphorylation of FAM-labeled substrate, Caliper LC-3000). To be noted: −log10(IC50), IC50 is the molar concentration at 50% inhibition; read-out: JAK2 pIC50 (converted). The assay is classed as biochemical. The method, then: (§1) A compound's ability to inhibit JAK activity may be assessed using a variety of methods, including in vitro and in vivo assays. The following in vitro assays measure a test compound's ability to inhibit JAK2- and JAK3-mediated phosphorylation of FAM-labeled JAK-specific substrates.
(§2) Purified JAK2 and JAK3 proteins were purchased from Invitrogen. JAK2 and JAK3 inhibition is determined using a black 384-well-plate format in buffer containing 50 mM HEPES, 10 mM NaCl, 10 mM MgCl2, 0.2 mM EDTA, 0.01% EDA (Brij® 35), 1 mM DTT, 0.1 mg/mL BSA at pH 7.3. Each test compound is prepared in DMSO using 2-fold serial dilutions for 11 data points and is added to the buffer so that each dilution contains 3% DMSO.
To each well is added 2 μL of 3 μM 5FAM-KKKKEEIYFFFG-NH2 and 45 μM ATP (in buffer), 2 μL of diluted test compound (3% DMSO in medium), and 2 μL of 0.6 nM JAK2 in buffer. The reaction mixture is incubated at room temperature for 60 min and is quenched by adding 50 mM HEPeX, 30 mM EDTA, and 0.1% Tx-100 (pH 7.3). To quantify the fluorescent-labeled substrate and product following reaction, the test plate is loaded on a Caliper LC-3000, which measures percent of conversion by microfluidic-based separation.
(§3) Corresponding IC50 values are calculated by non-linear curve fitting of the compound concentrations and percent of inhibition to the standard IC50 equation.

The target of another assay is T2, JAK3 (Homo sapiens, UniProt P52333).
T2 construct: purchased Invitrogen
T2 sequence (P52333 1-1124): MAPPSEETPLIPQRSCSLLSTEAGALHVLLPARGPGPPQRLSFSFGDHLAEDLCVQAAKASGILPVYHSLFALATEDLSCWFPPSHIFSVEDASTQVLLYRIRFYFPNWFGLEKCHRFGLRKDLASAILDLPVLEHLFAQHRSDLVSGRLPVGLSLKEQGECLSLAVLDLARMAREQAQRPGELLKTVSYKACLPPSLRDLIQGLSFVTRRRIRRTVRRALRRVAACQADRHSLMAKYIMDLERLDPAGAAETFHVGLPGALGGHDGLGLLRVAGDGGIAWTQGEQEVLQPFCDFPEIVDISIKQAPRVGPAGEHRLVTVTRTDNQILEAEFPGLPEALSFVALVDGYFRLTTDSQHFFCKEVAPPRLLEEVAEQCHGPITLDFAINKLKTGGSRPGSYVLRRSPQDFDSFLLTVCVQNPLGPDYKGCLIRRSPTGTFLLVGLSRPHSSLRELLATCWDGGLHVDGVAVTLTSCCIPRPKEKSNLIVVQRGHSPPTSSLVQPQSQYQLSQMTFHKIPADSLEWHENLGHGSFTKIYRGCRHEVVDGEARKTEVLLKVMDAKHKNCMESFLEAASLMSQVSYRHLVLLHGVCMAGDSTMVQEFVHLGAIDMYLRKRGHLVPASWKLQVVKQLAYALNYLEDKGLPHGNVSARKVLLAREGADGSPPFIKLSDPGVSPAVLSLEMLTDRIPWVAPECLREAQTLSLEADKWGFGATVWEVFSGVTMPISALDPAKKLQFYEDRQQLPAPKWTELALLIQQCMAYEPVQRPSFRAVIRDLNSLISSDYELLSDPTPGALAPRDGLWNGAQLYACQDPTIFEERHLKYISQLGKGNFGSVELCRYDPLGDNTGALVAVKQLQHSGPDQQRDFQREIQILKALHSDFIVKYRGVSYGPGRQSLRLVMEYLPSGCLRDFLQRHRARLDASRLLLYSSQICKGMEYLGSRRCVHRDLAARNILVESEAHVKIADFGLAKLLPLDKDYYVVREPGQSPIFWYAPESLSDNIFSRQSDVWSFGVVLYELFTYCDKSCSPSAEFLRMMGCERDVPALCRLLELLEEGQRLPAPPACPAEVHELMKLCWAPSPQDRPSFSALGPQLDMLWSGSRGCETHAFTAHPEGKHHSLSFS
Put plainly: Assay for JAK3 Inhibition (phosphorylation of FAM-labeled substrate, Caliper LC-3000). Type of assay: biochemical. To be noted: −log10(IC50), IC50 is the molar concentration at 50% inhibition; read-out: JAK3 pIC50 (converted). On the procedure: as §1, §2
To each well is added 2 μL of 3 μM 5FAM-KKKKEEIYFFFG-NH2 and 15 μM ATP (in buffer), 2 μL of diluted test compound (3% DMSO in medium), and 2 μL of 1.2 nM JAK3 in buffer. The reaction mixture is incubated at room temperature for 60 min and is quenched by adding 50 mM HEPES, 30 mM EDTA, and 0.1% Tx-100 (pH 7.3). To quantify the fluorescent-labeled substrate and product following reaction, the test plate is loaded on a Caliper LC-3000, which measures percent of conversion by microfluidic-based separation.
as §3

T1 sequence (O60674 whole entry): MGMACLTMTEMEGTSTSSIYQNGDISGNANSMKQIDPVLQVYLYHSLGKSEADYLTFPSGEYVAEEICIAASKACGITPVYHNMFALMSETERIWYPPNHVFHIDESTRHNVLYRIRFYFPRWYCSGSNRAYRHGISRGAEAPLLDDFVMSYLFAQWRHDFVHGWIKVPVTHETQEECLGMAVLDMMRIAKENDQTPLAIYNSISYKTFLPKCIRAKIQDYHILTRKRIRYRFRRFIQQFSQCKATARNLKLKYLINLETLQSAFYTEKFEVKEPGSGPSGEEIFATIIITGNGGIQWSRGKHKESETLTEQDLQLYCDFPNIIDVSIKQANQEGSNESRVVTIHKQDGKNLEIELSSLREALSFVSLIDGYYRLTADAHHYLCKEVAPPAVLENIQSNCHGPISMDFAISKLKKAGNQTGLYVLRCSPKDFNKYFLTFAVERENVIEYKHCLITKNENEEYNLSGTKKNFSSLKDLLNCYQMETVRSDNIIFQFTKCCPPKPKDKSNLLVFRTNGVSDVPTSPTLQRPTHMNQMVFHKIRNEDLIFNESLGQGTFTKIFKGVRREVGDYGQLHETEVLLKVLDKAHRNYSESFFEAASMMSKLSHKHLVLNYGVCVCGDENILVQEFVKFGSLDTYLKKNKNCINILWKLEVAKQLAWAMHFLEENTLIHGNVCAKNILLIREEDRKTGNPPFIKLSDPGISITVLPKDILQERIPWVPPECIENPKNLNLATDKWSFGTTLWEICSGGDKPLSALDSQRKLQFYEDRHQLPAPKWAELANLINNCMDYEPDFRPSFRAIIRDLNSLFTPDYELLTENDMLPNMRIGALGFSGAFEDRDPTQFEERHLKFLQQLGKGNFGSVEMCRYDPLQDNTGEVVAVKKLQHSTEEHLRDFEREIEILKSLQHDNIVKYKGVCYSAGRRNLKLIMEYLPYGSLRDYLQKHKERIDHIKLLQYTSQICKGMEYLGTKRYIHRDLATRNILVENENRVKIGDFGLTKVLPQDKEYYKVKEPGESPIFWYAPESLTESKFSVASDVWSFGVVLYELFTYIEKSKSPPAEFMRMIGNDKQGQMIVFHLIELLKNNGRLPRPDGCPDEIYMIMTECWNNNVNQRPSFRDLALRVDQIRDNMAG

In the case of `CC(C)[C@H](C(=O)NOCC1CC1)N1Cc2c(F)cnc3[nH]cc(c23)C1=O` [Example 49, (R)—N-(cyclopropylmethoxy)-2-(6-fluoro-3-oxopyrrolo[4,3,2-de][2,6]naphthyridin-4(1H,3H,5H)-yl)-3-methylbutanamide], the IC50 on JAK2 is 2 µM; at JAK3, 100 nM.
The like results for `CC(C)[C@H](C(=O)NC1CCC(F)(F)C1)N1Cc2c(F)cnc3[nH]cc(c23)C1=O` (stereo partly drawn) [Example 50, (2R)—N-(3,3-difluorocyclopentyl)-2-(6-fluoro-3-oxopyrrolo[4,3,2-de][2,6]naphthyridin-4(1H,3H,5H)-yl)-3-methylbutanamide] were, in that order, 1.58 µM and 79.4 nM.
As for `CC(C)[C@H](C(=O)N1CC(C#N)(CF)C1)N1Cc2ccnc3[nH]cc(c23)C1=O` [Example 51, (R)-3-(fluoromethyl)-1-(3-methyl-2-(3-oxopyrrolo[4,3,2-de][2,6]naphthyridin-4(1H,3H,5H)-yl)butanoyl)azetidine-3-carbonitrile], the IC50 at JAK2 was 0.158 µM; at JAK3, 5.01 nM.
The like results for `CC(C)[C@H](C(=O)N1CC(C)(C#N)C1)N1Cc2c(F)cnc3[nH]cc(c23)C1=O` [Example 52, (R)-1-(2-(6-fluoro-3-oxopyrrolo[4,3,2-de][2,6]naphthyridin-4(1H,3H,5H)-yl)-3-methylbutanoyl)-3-methylazetidine-3-carbonitrile] were, in that order, 0.2 µM and 10 nM.
`CC(C)[C@H](C(=O)N1CC(C)(C#N)C1)N1Cc2ccnc3[nH]cc(c23)C1=O` [Example 53, (R)-3-methyl-1-(3-methyl-2-(3-oxopyrrolo[4,3,2-de][2,6]naphthyridin-4(1H,3H,5H)-yl)butanoyl)azetidine-3-carbonitrile]: the IC50 at JAK2 was 0.251 µM; on JAK3, 12.6 nM.
The corresponding values for `CC[C@H](C(=O)N1CCOCC1)N1Cc2ccnc3[nH]cc(c23)C1=O` [Example 54, (R)-4-(1-morpholino-1-oxobutan-2-yl)-4,5-dihydropyrrolo[4,3,2-de][2,6]naphthyridin-3(1 H)-one] are 31.6 µM and 2000 nM.
The like results for `CC[C@H](C(=O)N1CCN(C)CC1)N1Cc2ccnc3[nH]cc(c23)C1=O` [Example 55, (R)-4-(1-(4-methylpiperazin-1-yl)-1-oxobutan-2-yl)-4,5-dihydropyrrolo[4,3,2-de][2,6]naphthyridin-3(1 H)-one] were, in that order, 12.6 µM and 1000 nM.
The like results for `CC[C@H](C(=O)N1CCC(O)C1)N1Cc2ccnc3[nH]cc(c23)C1=O` (stereo partly drawn) [Example 56, 4-((2R)-1-(3-hydroxypyrrolidin-1-yl)-1-oxobutan-2-yl)-4,5-dihydropyrrolo[4,3,2-de][2,6]naphthyridin-3(1 H)-one] were, in that order, 10 µM and 631 nM.
`CC[C@H](C(=O)NC1CCCC1)N1Cc2ccnc3[nH]cc(c23)C1=O` [Example 57, (R)—N-cyclopentyl-2-(3-oxopyrrolo[4,3,2-de][2,6]naphthyridin-4(1H,3H,5H)-yl)butanamide]: the IC50 was 1.58 µM on JAK2 and 79.4 nM at JAK3.
The like results for `CC[C@H](C(=O)N1CCC(c2ccc(F)cc2)C1)N1Cc2ccnc3[nH]cc(c23)C1=O` (stereo partly drawn) [Example 58, 4-((2R)-1-(3-(4-fluorophenyl)pyrrolidin-1-yl)-1-oxobutan-2-yl)-4,5-dihydropyrrolo[4,3,2-de][2,6]naphthyridin-3(1 H)-one] were, in that order, 3.16 µM and 316 nM.
The like results for `CC[C@H](C(=O)N1CCC(N(C)C)C1)N1Cc2ccnc3[nH]cc(c23)C1=O` (stereo partly drawn) [Example 59, 4-((2R)-1-(3-(dimethylamino)pyrrolidin-1-yl)-1-oxobutan-2-yl)-4,5-dihydropyrrolo[4,3,2-de][2,6]naphthyridin-3(1 H)-one] were, in that order, 20 µM and 6310 nM.
For the molecule `CC[C@H](C(=O)N1CCC(COC)C1)N1Cc2ccnc3[nH]cc(c23)C1=O` (stereo partly drawn) [Example 60, 4-((2R)-1-(3-(methoxymethyl)pyrrolidin-1-yl)-1-oxobutan-2-yl)-4,5-dihydropyrrolo[4,3,2-de][2,6]naphthyridin-3(1 H)-one], the IC50 was 10 µM on JAK2 and 794 nM at JAK3.
The corresponding values for `CC[C@H](C(=O)N1CCCC(C)C1)N1Cc2ccnc3[nH]cc(c23)C1=O` (stereo partly drawn) [Example 61, 4-((2R)-1-(3-methylpiperidin-1-yl)-1-oxobutan-2-yl)-4,5-dihydropyrrolo[4,3,2-de][2,6]naphthyridin-3(1 H)-one] are 20 µM and 6310 nM.
The like results for `CC[C@H](C(=O)N1CCC(C(C)(C)O)CC1)N1Cc2ccnc3[nH]cc(c23)C1=O` [Example 62, (R)-4-(1-(4-(2-hydroxypropan-2-yl)piperidin-1-yl)-1-oxobutan-2-yl)-4,5-dihydropyrrolo[4,3,2-de][2,6]naphthyridin-3(1 H)-one] were, in that order, 12.6 µM and 1580 nM.
The corresponding values for `CC[C@H](C(=O)N1CCN(S(C)(=O)=O)CC1)N1Cc2ccnc3[nH]cc(c23)C1=O` [Example 63, (R)-4-(1-(4-(methylsulfonyl)piperazin-1-yl)-1-oxobutan-2-yl)-4,5-dihydropyrrolo[4,3,2-de][2,6]naphthyridin-3(1 H)-one] are 6.31 µM and 631 nM.
Regarding `CC[C@H](C(=O)N1CCN(c2ccccn2)CC1)N1Cc2ccnc3[nH]cc(c23)C1=O` [Example 64, (R)-4-(1-oxo-1-(4-(pyridin-2-yl)piperazin-1-yl)butan-2-yl)-4,5-dihydropyrrolo[4,3,2-de][2,6]naphthyridin-3(1 H)-one], the IC50 on JAK2 is 20 µM; on JAK3, 2510 nM.
For the molecule `CC[C@H](C(=O)NC1CC1)N1Cc2ccnc3[nH]cc(c23)C1=O` [Example 65, (R)—N-cyclopropyl-2-(3-oxopyrrolo[4,3,2-de][2,6]naphthyridin-4(1H,3H,5H)-yl)butanamide], the IC50 at JAK2 was 6.31 µM; on JAK3, 2000 nM.
As to `CC[C@H](C(=O)NCC1CC1)N1Cc2ccnc3[nH]cc(c23)C1=O` [Example 66, (R)—N-(cyclopropylmethyl)-2-(3-oxopyrrolo[4,3,2-de][2,6]naphthyridin-4(1H,3H,5H)-yl)butanamide], the IC50 was 20 µM on JAK2 and 3980 nM at JAK3.
Take `CC[C@H](C(=O)NCC(C)C)N1Cc2ccnc3[nH]cc(c23)C1=O` [Example 67, (R)—N-isobutyl-2-(3-oxopyrrolo[4,3,2-de][2,6]naphthyridin-4(1H,3H,5H)-yl)butanamide]: the figures for the IC50 at JAK2 and on JAK3 were 5.01 µM and 251 nM, respectively.
The like results for `CC[C@H](C(=O)N(C)CC(C)C)N1Cc2ccnc3[nH]cc(c23)C1=O` [Example 68, (R)—N-isobutyl-N-methyl-2-(3-oxopyrrolo[4,3,2-de][2,6]naphthyridin-4(1H,3H,5H)-yl)butanamide] were, in that order, 20 µM and 2510 nM.
